In paper PMC9646673, “A Novel, Orally Bioavailable, Small-Molecule Inhibitor of PCSK9 With Significant Cholesterol-Lowering Properties In Vivo” (Journal of Lipid Research, 2022):
Where “and” joins values, the source holds several entries; their conditions need not be identical. Equal entries are not always repeated.

Key:
APOE∗3-Leiden.CETP mice [1] = test: First efficacy study (28 days): plasma lipids; type: in vivo, mouse
Excerpt: (§1) Animal experiments were approved by the governmental central committee on animal experiments (AVD5010020172064) and TNO’s animal welfare body (TNO-471 and TNO-482). Female APOE∗3-Leiden.CETP transgenic mice (11–16 weeks of age) were bred at the animal facility of TNO-InnoSer (Leiden, The Netherlands). Female animals were used in this study as they are more responsive to dietary cholesterol and fat than males and therefore typically develop atherosclerosis more rapidly than male APOE∗3-Leiden and APOE∗3-Leiden.CETP mice on cholesterol-containing diets ([33], [34]). Although measurements of atherosclerosis were not included as part of the present study, females were used with the prospect in mind that atherosclerosis studies will follow. The mice were housed under standard conditions that included 12 h light-dark cycles and access to a WTD and sterilized tap water ad libitum. Body weight, food intake, and clinical signs of behavior were monitored throughout the studies. […] Time t = 0 (weeks) was designated as the time at which mice were matched into groups after the 3-week run-in period in each efficacy study.
(§2) Treatment times were around 8:00 am and 4:00 pm each day. Throughout the in-life phase of the study, body weight and food intake (per cage) were measured at regular predetermined intervals while blood samples were collected every 7 days. The last gavage was administered on day 27. On day 28, the mice were sacrificed by CO2 asphyxiation, EDTA-plasma was obtained via heart puncture, and the liver was weighed and collected. Throughout the study, plasma cholesterol, triglycerides, HDL-C, lipoprotein profiles, PCSK9 expression levels, aspartate transaminase levels (AST), and alanine transaminase levels (ALT) were measured as described below.
(§3) In both studies, blood samples were collected at weekly intervals via tail vein sampling after fasting the mice for 4 h. Blood samples were centrifugated (4500 g at 4°C), and the plasma was collected for the following analyses. Total plasma cholesterol levels were determined using a Cholesterol CHOD-PAP kit according to the manufacturer’s instructions. Plasma HDL-C levels were determined by first precipitating apoB-containing lipids using PEG 6000/glycine and then utilizing the Cholesterol CHOD-PAP kit ([35]). Non-HDL-C levels were determined by subtracting HDL-C levels from total cholesterol levels ([32]). Group-pooled lipoprotein profiles were determined by FPLC analysis using an AKTApurifier 10 FPLC system (GE Healthcare, Chicago, IL). Plasma PCSK9 levels were determined using a Mouse PCSK9 Quantikine ELISA kit as per the manufacturer’s protocol. ALT and AST levels of group-pooled samples were measured using the Roche Reflotron Plus System (Mannheim, Germany).

APOE∗3-Leiden.CETP mice [2] = test: First efficacy study: body weight, food intake, plasma AST and ALT; type: in vivo, mouse; parameters: Body weight (mean ± SD) / Food intake (mean ± SD): unit not given here
Excerpt: as §1, §2, §3

[3] = 30 mg/kg BID PO, day 0 (baseline)
[4] = 50 mg/kg BID PO, day 0 (baseline)
[5] = 30 and 50 mg/kg BID PO, 28 days

Cc1cn(-c2cc(CN3CCC[C@H](N)C3)cc(NC(=O)c3cc(-c4ccccc4)ccn3)c2)cn1 [NYX-PCSK9i]
Plasma HDL- cholesterol (mean ± SEM) (APOE∗3-Leiden.CETP mice [1]; [3]): 0.9 ± 0.2 mmol/L | Plasma non-HDL- cholesterol (mean ± SEM) (APOE∗3-Leiden.CETP mice [1]; [3]): 14.7 ± 1.6 mmol/L | Plasma triglycerides (mean ± SD) (APOE∗3-Leiden.CETP mice [1]; [3]): 5.7 ± 2.2 mmol/L | Plasma triglycerides (mean ± SD) (APOE∗3-Leiden.CETP mice [1]; 30 mg/kg BID PO, day 7): 7.0 ± 2.0 mmol/L | Plasma HDL- cholesterol (mean ± SEM) (APOE∗3-Leiden.CETP mice [1]; 30 mg/kg BID PO, day 14): 0.4 ± 0.1 mmol/L | Plasma non-HDL- cholesterol (mean ± SEM) (APOE∗3-Leiden.CETP mice [1]; 30 mg/kg BID PO, day 14): 13.1 ± 2.2 mmol/L | Plasma triglycerides (mean ± SD) (APOE∗3-Leiden.CETP mice [1]; 30 mg/kg BID PO, day 14): 8.9 ± 1.8 mmol/L | Plasma triglycerides (mean ± SD) (APOE∗3-Leiden.CETP mice [1]; 30 mg/kg BID PO, day 21): 6.1 ± 1.5 mmol/L | Plasma HDL- cholesterol (mean ± SEM) (APOE∗3-Leiden.CETP mice [1]; 30 mg/kg BID PO, day 28): 0.8 ± 0.2 mmol/L | Plasma non-HDL- cholesterol (mean ± SEM) (APOE∗3-Leiden.CETP mice [1]; 30 mg/kg BID PO, day 28): 10.5 ± 1.4 mmol/L | Plasma triglycerides (mean ± SD) (APOE∗3-Leiden.CETP mice [1]; 30 mg/kg BID PO, day 28): 5.7 ± 1.9 mmol/L | Plasma HDL- cholesterol (mean ± SEM) (APOE∗3-Leiden.CETP mice [1]; [4]): 0.8 ± 0.1 mmol/L | Plasma non-HDL- cholesterol (mean ± SEM) (APOE∗3-Leiden.CETP mice [1]; [4]): 14.6 ± 2.5 mmol/L | Plasma triglycerides (mean ± SD) (APOE∗3-Leiden.CETP mice [1]; [4]): 6.1 ± 1.9 mmol/L | Plasma triglycerides (mean ± SD) (APOE∗3-Leiden.CETP mice [1]; 50 mg/kg BID PO, day 7): 5.9 ± 2.0 mmol/L | Plasma HDL- cholesterol (mean ± SEM) (APOE∗3-Leiden.CETP mice [1]; 50 mg/kg BID PO, day 14): 0.6 ± 0.2 mmol/L | Plasma non-HDL- cholesterol (mean ± SEM) (APOE∗3-Leiden.CETP mice [1]; 50 mg/kg BID PO, day 14): 9.8 ± 2.4 mmol/L | Plasma triglycerides (mean ± SD) (APOE∗3-Leiden.CETP mice [1]; 50 mg/kg BID PO, day 14): 5.2 ± 1.7 mmol/L | Plasma triglycerides (mean ± SD) (APOE∗3-Leiden.CETP mice [1]; 50 mg/kg BID PO, day 21): 4.2 ± 1.3 mmol/L | Plasma HDL- cholesterol (mean ± SEM) (APOE∗3-Leiden.CETP mice [1]; 50 mg/kg BID PO, day 28): 0.9 ± 0.2 mmol/L | Plasma non-HDL- cholesterol (mean ± SEM) (APOE∗3-Leiden.CETP mice [1]; 50 mg/kg BID PO, day 28): 6.8 ± 1.5 mmol/L | Plasma triglycerides (mean ± SD) (APOE∗3-Leiden.CETP mice [1]; 50 mg/kg BID PO, day 28): 4.1 ± 1.2 mmol/L | reduction of total cholesterol in absolute terms (APOE∗3-Leiden.CETP mice [1]; 50 mg/kg BID PO, day 28): 10.1 mM and 390 mg/dl | HDL-C levels (APOE∗3-Leiden.CETP mice [1]; [5]): no consistent reduction in HDL-C levels | Mean plasma triglyceride levels (APOE∗3-Leiden.CETP mice [1]; [5]): essentially unchanged | Body weight (mean ± SD) (APOE∗3-Leiden.CETP mice [2]; [3]): 21.9 ± 1.3 | Food intake (mean ± SD) (APOE∗3-Leiden.CETP mice [2]; [3]): 3.3 ± 0.3 | Body weight (mean ± SD) (APOE∗3-Leiden.CETP mice [2]; 30 mg/kg BID PO, day 7): 22.0 ± 1.6 | Food intake (mean ± SD) (APOE∗3-Leiden.CETP mice [2]; 30 mg/kg BID PO, day 7): 2.7 ± 0.3 | Food intake (mean ± SD) (APOE∗3-Leiden.CETP mice [2]; 30 mg/kg BID PO, day 14): 2.6 ± 0.6 | Food intake (mean ± SD) (APOE∗3-Leiden.CETP mice [2]; 30 mg/kg BID PO, day 21): 2.4 ± 0.2 | Body weight (mean ± SD) (APOE∗3-Leiden.CETP mice [2]; 30 mg/kg BID PO, day 28): 22.0 ± 1.1 | Food intake (mean ± SD) (APOE∗3-Leiden.CETP mice [2]; 30 mg/kg BID PO, day 28): 3.0 ± 0.1 | Food intake (mean ± SD) (APOE∗3-Leiden.CETP mice [2]; [4]): 3.3 ± 0.3 | Body weight (mean ± SD) (APOE∗3-Leiden.CETP mice [2]; 50 mg/kg BID PO, day 7): 21.8 ± 1.3 | Food intake (mean ± SD) (APOE∗3-Leiden.CETP mice [2]; 50 mg/kg BID PO, day 7): 2.6 ± 0.0 | Body weight (mean ± SD) (APOE∗3-Leiden.CETP mice [2]; 50 mg/kg BID PO, day 14): 21.8 ± 1.1 | Food intake (mean ± SD) (APOE∗3-Leiden.CETP mice [2]; 50 mg/kg BID PO, day 14): 2.9 ± 0.0 | Body weight (mean ± SD) (APOE∗3-Leiden.CETP mice [2]; 50 mg/kg BID PO, day 21): 21.5 ± 1.4 | Food intake (mean ± SD) (APOE∗3-Leiden.CETP mice [2]; 50 mg/kg BID PO, day 21): 2.7 ± 0.0 | Body weight (mean ± SD) (APOE∗3-Leiden.CETP mice [2]; 50 mg/kg BID PO, day 28): 21.6 ± 1.1 | Food intake (mean ± SD) (APOE∗3-Leiden.CETP mice [2]; 50 mg/kg BID PO, day 28): 2.7 ± 0.1
